This passage reports AC50 results from ChEMBL document CHEMBL5291721, “A preclinical secondary pharmacology resource illuminates target-adverse drug reaction associations of marketed drugs” (Nat Commun, 2023).

Test [1] has as its target 5-hydroxytryptamine receptor 7 (Homo sapiens, UniProt P34969).
The next test addresses Cannabinoid receptor 1 (Homo sapiens, UniProt P21554). It is filed as functional.
Test [2] deals with T1, Muscarinic acetylcholine receptor M4 (Homo sapiens, UniProt P08173).
T1 sequence (P08173 whole entry): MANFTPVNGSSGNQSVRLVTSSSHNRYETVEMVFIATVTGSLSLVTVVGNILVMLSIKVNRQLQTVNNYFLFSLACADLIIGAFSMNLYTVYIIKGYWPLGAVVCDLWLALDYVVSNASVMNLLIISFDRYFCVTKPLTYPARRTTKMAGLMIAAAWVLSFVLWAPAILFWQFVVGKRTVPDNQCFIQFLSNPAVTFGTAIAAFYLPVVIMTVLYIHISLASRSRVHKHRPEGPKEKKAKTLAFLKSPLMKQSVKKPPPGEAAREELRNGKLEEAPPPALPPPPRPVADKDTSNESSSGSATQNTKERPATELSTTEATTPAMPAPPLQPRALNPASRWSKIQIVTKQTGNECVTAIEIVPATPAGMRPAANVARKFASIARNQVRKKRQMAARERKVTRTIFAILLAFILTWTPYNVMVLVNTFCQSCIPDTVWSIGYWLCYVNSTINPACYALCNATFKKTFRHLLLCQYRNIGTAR

The target of the next test is T2, Substance-K receptor (Homo sapiens, UniProt P21452).
T2 sequence (P21452 whole entry): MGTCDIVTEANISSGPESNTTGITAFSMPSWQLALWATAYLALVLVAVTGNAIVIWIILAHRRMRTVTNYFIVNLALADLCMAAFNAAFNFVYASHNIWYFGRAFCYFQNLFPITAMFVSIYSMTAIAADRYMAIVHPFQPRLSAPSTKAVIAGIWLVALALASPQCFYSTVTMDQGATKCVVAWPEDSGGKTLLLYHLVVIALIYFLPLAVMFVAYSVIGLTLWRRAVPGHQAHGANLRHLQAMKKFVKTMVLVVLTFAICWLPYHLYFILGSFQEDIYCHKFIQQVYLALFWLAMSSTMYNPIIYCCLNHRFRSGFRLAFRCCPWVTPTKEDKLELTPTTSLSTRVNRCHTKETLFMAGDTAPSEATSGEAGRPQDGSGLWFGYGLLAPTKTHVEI

Test [3] has as its target Gamma-aminobutyric acid type B receptor subunit 1 (Homo sapiens, UniProt Q9UBS5).
Test [4] concerns the target T3, Androgen receptor (Rattus norvegicus, UniProt P15207).
T3 sequence (P15207 whole entry): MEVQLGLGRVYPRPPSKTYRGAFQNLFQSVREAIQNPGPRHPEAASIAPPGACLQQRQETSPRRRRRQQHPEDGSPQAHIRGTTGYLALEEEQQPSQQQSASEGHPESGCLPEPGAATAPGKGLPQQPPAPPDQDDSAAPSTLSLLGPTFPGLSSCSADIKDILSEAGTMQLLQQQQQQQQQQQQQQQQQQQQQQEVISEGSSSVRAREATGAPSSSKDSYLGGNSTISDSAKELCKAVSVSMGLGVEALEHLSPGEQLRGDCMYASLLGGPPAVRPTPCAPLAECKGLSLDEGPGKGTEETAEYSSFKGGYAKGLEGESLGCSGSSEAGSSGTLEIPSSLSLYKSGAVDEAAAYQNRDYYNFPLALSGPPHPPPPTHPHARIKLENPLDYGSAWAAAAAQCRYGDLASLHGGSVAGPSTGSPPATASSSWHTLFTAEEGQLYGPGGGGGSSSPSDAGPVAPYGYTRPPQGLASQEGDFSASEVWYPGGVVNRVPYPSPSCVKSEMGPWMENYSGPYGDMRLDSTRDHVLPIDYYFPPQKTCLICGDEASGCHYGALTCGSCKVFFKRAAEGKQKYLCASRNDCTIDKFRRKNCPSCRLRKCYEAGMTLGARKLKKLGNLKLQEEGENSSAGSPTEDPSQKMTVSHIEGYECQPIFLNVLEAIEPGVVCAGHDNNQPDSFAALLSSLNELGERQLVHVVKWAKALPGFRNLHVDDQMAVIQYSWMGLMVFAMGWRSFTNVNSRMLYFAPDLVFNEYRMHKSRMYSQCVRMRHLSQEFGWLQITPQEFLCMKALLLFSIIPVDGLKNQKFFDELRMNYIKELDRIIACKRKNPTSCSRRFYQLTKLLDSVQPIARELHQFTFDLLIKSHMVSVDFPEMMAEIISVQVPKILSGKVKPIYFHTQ
It is filed as functional.

The target of test [5] is Vascular endothelial growth factor receptor 2 (Homo sapiens, UniProt P35968). The format is functional.
Sequence of Vascular endothelial growth factor receptor 2 (P35968 whole entry): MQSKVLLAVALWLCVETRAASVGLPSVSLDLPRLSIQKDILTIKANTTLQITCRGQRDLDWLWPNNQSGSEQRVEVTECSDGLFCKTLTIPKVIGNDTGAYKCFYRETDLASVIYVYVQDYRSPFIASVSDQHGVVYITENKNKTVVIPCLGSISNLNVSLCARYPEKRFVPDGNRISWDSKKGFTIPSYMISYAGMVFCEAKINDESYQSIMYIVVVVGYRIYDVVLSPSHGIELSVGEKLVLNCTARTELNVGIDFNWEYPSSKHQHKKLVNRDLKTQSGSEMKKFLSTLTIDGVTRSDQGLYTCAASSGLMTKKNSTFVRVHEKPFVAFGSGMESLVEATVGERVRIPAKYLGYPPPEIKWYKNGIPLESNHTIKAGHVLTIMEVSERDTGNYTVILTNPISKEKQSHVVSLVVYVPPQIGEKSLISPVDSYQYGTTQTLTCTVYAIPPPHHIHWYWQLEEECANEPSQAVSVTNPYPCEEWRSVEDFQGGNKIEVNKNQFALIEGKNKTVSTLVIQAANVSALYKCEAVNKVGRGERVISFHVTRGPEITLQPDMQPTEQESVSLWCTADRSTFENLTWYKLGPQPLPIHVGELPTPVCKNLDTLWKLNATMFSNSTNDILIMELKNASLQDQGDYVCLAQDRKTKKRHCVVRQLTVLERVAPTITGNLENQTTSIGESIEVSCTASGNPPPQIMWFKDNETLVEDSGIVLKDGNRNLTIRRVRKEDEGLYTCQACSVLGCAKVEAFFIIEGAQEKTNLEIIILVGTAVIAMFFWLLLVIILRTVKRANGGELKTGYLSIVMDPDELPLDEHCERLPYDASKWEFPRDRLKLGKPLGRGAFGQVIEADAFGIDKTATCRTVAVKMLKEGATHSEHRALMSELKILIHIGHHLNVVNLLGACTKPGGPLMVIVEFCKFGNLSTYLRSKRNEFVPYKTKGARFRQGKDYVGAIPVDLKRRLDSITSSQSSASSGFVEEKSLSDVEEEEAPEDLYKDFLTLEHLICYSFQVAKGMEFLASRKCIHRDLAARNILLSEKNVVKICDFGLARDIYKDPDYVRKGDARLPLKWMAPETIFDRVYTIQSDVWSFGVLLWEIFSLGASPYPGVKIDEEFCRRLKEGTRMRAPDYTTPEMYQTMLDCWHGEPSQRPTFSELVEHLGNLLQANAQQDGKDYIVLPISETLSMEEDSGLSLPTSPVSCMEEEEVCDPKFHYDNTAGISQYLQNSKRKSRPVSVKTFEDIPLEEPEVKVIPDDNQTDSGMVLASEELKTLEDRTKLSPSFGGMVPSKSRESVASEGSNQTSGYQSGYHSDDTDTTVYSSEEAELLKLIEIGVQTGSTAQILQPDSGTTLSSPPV
Test [6] concerns the target T3, Androgen receptor. The format is functional. The source holds these as a separate data set.
The target in the next test is D(1A) dopamine receptor (Homo sapiens, UniProt P21728).
Sequence of D(1A) dopamine receptor (P21728 whole entry): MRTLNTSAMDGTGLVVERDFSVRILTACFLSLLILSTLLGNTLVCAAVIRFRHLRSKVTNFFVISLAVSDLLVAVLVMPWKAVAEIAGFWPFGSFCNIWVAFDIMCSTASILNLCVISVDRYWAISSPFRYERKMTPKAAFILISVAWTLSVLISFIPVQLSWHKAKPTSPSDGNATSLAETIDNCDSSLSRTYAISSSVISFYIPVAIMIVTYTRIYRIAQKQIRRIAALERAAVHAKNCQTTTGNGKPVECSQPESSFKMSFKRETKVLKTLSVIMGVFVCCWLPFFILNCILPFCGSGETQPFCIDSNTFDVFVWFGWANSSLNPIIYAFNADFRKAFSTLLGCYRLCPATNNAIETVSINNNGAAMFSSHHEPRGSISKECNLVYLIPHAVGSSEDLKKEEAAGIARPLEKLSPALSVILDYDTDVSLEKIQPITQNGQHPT
The target of test [7] is T4, Muscarinic acetylcholine receptor M1 (Homo sapiens, UniProt P11229).
T4 sequence (P11229 whole entry): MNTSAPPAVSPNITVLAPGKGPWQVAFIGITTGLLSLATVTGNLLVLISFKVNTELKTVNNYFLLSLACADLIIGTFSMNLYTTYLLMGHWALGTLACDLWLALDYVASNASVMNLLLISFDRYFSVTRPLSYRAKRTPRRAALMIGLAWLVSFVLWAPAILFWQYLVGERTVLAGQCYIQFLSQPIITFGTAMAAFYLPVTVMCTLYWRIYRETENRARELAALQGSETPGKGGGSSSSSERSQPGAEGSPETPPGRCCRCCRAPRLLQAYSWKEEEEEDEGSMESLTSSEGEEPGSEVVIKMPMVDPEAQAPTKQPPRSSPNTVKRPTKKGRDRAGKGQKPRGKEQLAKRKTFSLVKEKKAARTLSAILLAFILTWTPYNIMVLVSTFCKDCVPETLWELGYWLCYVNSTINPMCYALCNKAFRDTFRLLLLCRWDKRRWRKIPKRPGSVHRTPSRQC

The target of test [8] is T5, Nuclear receptor subfamily 1 group I member 3 (Homo sapiens, UniProt Q14994).
T5 sequence (Q14994 whole entry): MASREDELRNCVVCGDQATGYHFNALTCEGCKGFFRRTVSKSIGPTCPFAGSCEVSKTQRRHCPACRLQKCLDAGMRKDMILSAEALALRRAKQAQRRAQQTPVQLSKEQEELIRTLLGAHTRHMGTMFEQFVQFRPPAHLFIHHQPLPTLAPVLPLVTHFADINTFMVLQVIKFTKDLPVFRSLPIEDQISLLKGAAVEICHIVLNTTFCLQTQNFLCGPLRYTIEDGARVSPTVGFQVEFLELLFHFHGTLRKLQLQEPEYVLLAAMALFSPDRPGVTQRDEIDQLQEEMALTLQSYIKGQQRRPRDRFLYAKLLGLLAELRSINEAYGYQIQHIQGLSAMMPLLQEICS
The format is functional.
Further: assay procedure not described here.

Sequence of Cannabinoid receptor 1 (P21554 whole entry): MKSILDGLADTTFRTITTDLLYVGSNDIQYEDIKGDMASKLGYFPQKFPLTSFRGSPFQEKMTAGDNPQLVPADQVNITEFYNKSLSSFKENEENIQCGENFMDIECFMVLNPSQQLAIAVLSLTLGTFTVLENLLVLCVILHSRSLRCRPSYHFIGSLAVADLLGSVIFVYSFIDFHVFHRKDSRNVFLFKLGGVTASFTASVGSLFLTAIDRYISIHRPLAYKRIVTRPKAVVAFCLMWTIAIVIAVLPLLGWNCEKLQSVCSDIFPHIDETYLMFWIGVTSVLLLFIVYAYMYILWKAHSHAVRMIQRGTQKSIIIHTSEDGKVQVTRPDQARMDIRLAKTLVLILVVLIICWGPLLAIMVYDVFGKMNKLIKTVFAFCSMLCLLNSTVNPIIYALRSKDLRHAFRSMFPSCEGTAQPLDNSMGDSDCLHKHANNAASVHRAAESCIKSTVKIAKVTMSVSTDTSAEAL
Sequence of Gamma-aminobutyric acid type B receptor subunit 1 (Q9UBS5 whole entry): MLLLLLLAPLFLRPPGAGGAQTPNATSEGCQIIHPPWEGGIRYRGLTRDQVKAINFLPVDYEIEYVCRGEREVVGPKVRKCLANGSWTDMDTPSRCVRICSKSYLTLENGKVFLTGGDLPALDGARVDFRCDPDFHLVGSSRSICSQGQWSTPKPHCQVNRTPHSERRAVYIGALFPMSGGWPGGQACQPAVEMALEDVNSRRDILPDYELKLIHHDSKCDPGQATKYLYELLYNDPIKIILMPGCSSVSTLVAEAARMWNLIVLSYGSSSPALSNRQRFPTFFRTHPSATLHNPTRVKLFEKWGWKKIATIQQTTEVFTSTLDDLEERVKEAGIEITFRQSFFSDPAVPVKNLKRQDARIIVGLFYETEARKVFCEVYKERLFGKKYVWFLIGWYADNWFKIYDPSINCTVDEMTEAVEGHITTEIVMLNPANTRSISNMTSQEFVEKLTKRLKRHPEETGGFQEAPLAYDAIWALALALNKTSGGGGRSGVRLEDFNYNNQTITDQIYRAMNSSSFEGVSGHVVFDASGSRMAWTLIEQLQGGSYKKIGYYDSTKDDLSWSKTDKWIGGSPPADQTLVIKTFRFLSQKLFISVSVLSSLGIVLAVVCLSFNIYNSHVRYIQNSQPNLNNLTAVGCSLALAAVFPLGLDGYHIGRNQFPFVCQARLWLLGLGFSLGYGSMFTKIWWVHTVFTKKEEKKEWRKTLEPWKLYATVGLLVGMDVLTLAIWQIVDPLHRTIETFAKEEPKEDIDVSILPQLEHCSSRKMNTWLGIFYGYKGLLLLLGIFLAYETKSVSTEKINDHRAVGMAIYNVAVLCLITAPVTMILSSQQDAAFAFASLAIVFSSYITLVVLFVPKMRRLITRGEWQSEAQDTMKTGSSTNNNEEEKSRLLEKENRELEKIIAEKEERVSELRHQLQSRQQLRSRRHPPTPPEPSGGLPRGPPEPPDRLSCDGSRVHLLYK
Sequence of 5-hydroxytryptamine receptor 7 (P34969 whole entry): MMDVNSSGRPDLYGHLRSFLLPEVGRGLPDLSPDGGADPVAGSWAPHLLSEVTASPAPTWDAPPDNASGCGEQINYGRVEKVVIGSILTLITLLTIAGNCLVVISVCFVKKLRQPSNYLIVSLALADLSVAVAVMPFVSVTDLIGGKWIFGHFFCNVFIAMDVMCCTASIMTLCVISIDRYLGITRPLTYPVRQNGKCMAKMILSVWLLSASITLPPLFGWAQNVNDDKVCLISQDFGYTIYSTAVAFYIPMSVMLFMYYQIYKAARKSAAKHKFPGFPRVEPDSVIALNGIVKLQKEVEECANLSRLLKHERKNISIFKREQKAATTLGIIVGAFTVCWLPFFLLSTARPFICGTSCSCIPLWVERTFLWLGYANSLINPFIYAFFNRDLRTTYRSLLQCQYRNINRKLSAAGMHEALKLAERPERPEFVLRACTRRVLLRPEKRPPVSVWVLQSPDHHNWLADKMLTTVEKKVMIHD

As usually defined, the AC50 is the concentration giving half of the maximal activity seen. High values mean activity only at high concentration, low ones activity at low concentration. `CCOc1nc2cccc(C(=O)O)c2n1Cc1ccc(-c2ccccc2-c2nnn[nH]2)cc1`: the AC50 was more than 10 µM in test [1]; more than 10 µM on Cannabinoid receptor 1; more than 10 µM in test [2]; more than 10 µM at Substance-K receptor; more than 10 µM in test [3]; more than 30 µM on Androgen receptor [4].

Take `CCCc1nc2c(C)cc(-c3nc4ccccc4n3C)cc2n1Cc1ccc(-c2ccccc2C(=O)O)cc1`: the AC50 (in test [1]; on Cannabinoid receptor 1; in test [3]) was more than 10 µM in each case.

Consider `CCOc1cc([C@@H](CS(C)(=O)=O)N2C(=O)c3cccc(NC(C)=O)c3C2=O)ccc1OC`, for which the AC50 (in [5]; on Androgen receptor [4]) was more than 30 µM in each case.

As to `CC(C(=O)O)c1ccc2oc(-c3ccc(Cl)cc3)nc2c1` (configuration not stated) [BENOXAPROFEN], the half-maximal activity concentration (AC50) on Androgen receptor [6] and at Androgen receptor [4] was more than 30 µM in each case.

`Nc1c(CC(=O)O)cccc1C(=O)c1ccc(Br)cc1` [BROMFENAC]: the AC50 on D(1A) dopamine receptor was more than 30 µM.

Turning to `Cc1nnc(SCC2=C(C(=O)O)N3C(=O)[C@@H](NC(=O)Cn4cnnn4)[C@H]3SC2)s1` [CEFAZOLIN], the AC50 in test [5] is more than 300 µM.

Regarding `CC(C)(O/N=C(\C(=O)N[C@@H]1C(=O)N2C(C(=O)[O-])=C(C[n+]3ccccc3)CS[C@H]12)c1csc(N)n1)C(=O)O` [CEFTAZIDIME], the AC50 in test [5] is more than 300 µM.

`CC(C)NC(=N)NC(=N)Nc1ccc(Cl)c(Cl)c1` [CHLORPROGUANIL]: the AC50 (on D(1A) dopamine receptor; in test [7]) was more than 30 µM throughout.

`Clc1ccc(Cn2c(CN3CCCC3)nc3ccccc32)cc1` [CLEMIZOLE] had an AC50 in test [5] of more than 30 µM.

Regarding `CCC(=O)O[C@]1(C(=O)CCl)[C@@H](C)C[C@H]2[C@@H]3CCC4=CC(=O)C=C[C@]4(C)[C@@]3(F)[C@@H](O)C[C@@]21C` [CLOBETASOL PROPIONATE], the AC50 on Androgen receptor [6] is 27 µM; on Androgen receptor [4], more than 30 µM.

As to `Cc1nc(Nc2ncc(C(=O)Nc3c(C)cccc3Cl)s2)cc(N2CCN(CCO)CC2)n1` [DASATINIB], the AC50 (at Cannabinoid receptor 1; in test [2]; on Substance-K receptor; in test [3]) was more than 10 µM each time.

Regarding `O=C(O)Cc1ccccc1Nc1c(Cl)cccc1Cl` [DICLOFENAC], the AC50 in test [8] is 23 µM; in [1], more than 10 µM; at Cannabinoid receptor 1 it was more than 10 µM; in [2] it was more than 10 µM; on Substance-K receptor, more than 10 µM; in test [3], more than 10 µM.

As for `CN[C@@H]1[C@H](O[C@H]2[C@H](O[C@H]3[C@H](O)[C@@H](O)[C@H](NC(=N)N)[C@@H](O)[C@@H]3NC(=N)N)O[C@@H](C)[C@]2(O)CO)O[C@@H](CO)[C@H](O)[C@H]1O` [DIHYDROSTREPTOMYCIN], the AC50 (on D(1A) dopamine receptor; in test [7]) was more than 30 µM in each case.

For the compound `Cc1onc(-c2c(F)cccc2Cl)c1C(=O)N[C@@H]1C(=O)N2[C@@H]1SC(C)(C)[C@@H]2C(=O)O` [FLOXACILLIN], in [5], the AC50 is more than 30 µM.

`Cc1ccc(C)c(OCCCC(C)(C)C(=O)O)c1` [GEMFIBROZIL] displayed an AC50 in [3] of more than 10 µM.

Regarding `C#C[C@]1(O)C=C[C@H]2[C@@H]3CCC4=CC(=O)CC[C@@H]4[C@H]3CC[C@@]21CC` [GESTODENE], the AC50 (at D(1A) dopamine receptor; in test [7]) was more than 30 µM each time.

`COc1ccccc1OC1(C)OC(=O)c2ccccc2O1` (configuration not stated) [GUAIMESAL]: the AC50 at Androgen receptor [6] and on Androgen receptor [4] was more than 30 µM each time.

As to `CC(CN1c2ccccc2Sc2ccccc21)N(C)C` (configuration not stated) [PROMETHAZINE], the AC50 on D(1A) dopamine receptor was more than 30 µM.

For `CN(CCOc1ccc(CC2SC(=O)NC2=O)cc1)c1ccccn1` (configuration not stated) [ROSIGLITAZONE], the AC50 is 18 µM in test [8], more than 10 µM in test [1], more than 10 µM on Cannabinoid receptor 1 and more than 10 µM in [3].

The compound `S=P(N1CC1)(N1CC1)N1CC1` [THIOTEPA] returned an AC50 in [5] of more than 30 µM.

Take `CC(C)C[C@H](NC(=O)[C@@H](O)[C@H](N)Cc1ccccc1)C(=O)O` [UBENIMEX]: on D(1A) dopamine receptor, the concentration at half-maximal activity (AC50) was more than 30 µM.

`COc1cc(C(=O)NS(=O)(=O)c2ccccc2C)ccc1Cc1cn(C)c2ccc(NC(=O)OC3CCCC3)cc12` [ZAFIRLUKAST] displayed an AC50 in [8] of 4 µM.
